Columns and labels:
Type in all cases: cell-based
ABCA4 P1380L = molecular target: T1, ABCA4 P1380L (Homo sapiens, UniProt P78363, P1380L); test: A4 correction dose-response assay: ABCA4 P1380L HiBit protein expression; conditions: HEK-293 cells stably expressing HiBit-tagged ABCA4 P1380L; 24 h treatment; top concentration 30 μM; read-out: ABCA4 P1380L EC50, Emax
T1 construct: expressed in transfected cells
Method in brief: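 Cells transfected with HiBit-tagged human ABCA4 P1380L cDNA were treated for 24 h at 37°C with an eleven-point dilution series (top final 30 μM, 0.3% DMSO).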

ABCB4 WT = molecular target: T2, ABCB4 WT (Homo sapiens, UniProt P21439); test: ABCB4 WT assay: HiBit protein expression; conditions: HEK-293 cells stably expressing HiBit-tagged ABCB4 WT; 24 h treatment; top concentration 30 μM; read-out: ABCB4 WT EC50, Emax
T2 construct: expressed in transfected cells
Method in brief: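 HEK-293 cells stably expressing HiBit-tagged human ABCB4 WT, treated 24 h at 37 °C with 11-dose 3-fold dilutions, top final 30 μM in 0.3% DMSO. HiBit lytic reagent luminescence read after 1 h at 25 °C; Emax and EC50 derived.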

ABCC6 WT = molecular target: T3, ABCC6 WT (Homo sapiens, UniProt O95255); test: ABCC6 WT assay: HiBit protein expression; conditions: HEK-293 cells transiently expressing HiBit-tagged ABCC6 WT; 24 h treatment; top concentration 20 μM; read-out: ABCC6 WT EC50, Emax
T3 construct: expressed in transfected cells; host or cells: HEK-293 (transient, Lipofectamine 2000)
Method in brief: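 HEK-293 cells transiently transfected with HiBit-tagged human ABCC6 WT cDNA, seeded 24 h post-transfection, treated 24 h at 37° C with ten 2-fold doses (top 20 μM final, 0.15% DMSO). HiBit lytic luminescence reports protein expression; Emax and EC50 derived.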

T3 sequence (O95255 whole entry): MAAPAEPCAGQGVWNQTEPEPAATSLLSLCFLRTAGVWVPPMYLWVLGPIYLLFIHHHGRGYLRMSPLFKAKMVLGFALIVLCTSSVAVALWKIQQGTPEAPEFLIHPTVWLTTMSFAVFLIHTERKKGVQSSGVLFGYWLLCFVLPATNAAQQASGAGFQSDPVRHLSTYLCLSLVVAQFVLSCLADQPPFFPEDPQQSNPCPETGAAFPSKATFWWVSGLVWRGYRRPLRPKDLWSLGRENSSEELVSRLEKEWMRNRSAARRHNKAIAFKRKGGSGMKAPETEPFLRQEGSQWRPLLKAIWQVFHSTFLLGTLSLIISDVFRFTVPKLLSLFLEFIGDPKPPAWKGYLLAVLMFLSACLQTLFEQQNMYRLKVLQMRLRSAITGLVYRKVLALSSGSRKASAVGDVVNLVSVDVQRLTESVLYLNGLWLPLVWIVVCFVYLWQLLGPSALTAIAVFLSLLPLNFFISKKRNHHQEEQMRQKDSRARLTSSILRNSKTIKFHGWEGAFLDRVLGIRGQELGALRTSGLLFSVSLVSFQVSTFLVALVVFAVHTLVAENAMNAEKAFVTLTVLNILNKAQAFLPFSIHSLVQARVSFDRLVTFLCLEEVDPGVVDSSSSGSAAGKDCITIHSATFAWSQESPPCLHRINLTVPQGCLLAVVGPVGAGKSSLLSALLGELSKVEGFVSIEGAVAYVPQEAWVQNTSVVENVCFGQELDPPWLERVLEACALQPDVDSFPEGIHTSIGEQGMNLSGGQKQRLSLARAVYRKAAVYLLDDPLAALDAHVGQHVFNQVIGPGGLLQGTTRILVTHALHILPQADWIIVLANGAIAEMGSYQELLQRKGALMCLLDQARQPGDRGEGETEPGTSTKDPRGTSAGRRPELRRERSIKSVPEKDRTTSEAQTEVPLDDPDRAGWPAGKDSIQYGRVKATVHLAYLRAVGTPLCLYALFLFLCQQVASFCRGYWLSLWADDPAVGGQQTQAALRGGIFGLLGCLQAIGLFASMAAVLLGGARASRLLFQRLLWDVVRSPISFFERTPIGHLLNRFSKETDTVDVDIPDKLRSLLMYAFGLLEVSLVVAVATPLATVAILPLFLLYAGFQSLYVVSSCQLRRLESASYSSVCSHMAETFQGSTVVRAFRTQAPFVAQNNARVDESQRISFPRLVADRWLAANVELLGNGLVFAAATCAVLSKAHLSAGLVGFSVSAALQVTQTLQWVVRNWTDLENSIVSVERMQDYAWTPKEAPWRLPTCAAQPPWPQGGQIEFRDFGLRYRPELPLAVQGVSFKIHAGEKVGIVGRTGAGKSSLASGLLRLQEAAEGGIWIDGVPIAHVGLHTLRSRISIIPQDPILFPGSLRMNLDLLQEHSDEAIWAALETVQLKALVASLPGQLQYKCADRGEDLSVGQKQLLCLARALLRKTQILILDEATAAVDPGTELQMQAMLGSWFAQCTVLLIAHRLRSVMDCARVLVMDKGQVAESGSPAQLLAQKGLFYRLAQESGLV
T2 sequence (P21439 whole entry): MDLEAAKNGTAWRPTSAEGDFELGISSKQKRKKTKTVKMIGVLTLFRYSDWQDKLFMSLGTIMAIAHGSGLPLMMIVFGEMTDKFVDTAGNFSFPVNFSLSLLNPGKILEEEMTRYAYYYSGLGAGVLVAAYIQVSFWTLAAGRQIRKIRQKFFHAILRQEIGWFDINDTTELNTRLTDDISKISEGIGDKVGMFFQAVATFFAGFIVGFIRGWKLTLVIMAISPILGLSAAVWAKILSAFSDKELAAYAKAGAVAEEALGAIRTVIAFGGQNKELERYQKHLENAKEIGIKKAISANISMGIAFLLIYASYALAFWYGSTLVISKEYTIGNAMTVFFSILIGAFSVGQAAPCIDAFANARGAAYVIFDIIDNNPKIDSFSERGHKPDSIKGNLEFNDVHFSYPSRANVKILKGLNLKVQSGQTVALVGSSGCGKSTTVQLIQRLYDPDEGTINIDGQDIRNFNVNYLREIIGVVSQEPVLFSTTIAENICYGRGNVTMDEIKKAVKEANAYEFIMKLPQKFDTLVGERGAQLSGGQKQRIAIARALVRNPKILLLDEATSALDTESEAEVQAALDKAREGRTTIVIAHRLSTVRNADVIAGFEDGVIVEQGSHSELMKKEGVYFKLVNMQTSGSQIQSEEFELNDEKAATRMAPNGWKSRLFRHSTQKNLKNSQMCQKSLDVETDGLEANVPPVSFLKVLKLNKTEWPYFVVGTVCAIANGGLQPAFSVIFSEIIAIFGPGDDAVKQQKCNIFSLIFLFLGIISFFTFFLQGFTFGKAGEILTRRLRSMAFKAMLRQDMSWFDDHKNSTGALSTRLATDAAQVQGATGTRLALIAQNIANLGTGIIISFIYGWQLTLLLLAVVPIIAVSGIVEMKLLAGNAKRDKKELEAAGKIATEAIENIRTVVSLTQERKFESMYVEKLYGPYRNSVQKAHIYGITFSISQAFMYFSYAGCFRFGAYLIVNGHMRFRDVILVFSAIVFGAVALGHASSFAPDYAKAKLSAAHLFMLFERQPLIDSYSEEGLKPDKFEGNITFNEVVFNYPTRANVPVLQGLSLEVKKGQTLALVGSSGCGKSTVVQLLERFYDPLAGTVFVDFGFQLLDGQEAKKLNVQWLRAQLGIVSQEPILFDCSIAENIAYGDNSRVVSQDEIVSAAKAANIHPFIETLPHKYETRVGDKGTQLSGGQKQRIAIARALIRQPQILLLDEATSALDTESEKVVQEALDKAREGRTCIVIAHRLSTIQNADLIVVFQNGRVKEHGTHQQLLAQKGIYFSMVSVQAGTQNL
T1 sequence (P78363 whole entry P1380L): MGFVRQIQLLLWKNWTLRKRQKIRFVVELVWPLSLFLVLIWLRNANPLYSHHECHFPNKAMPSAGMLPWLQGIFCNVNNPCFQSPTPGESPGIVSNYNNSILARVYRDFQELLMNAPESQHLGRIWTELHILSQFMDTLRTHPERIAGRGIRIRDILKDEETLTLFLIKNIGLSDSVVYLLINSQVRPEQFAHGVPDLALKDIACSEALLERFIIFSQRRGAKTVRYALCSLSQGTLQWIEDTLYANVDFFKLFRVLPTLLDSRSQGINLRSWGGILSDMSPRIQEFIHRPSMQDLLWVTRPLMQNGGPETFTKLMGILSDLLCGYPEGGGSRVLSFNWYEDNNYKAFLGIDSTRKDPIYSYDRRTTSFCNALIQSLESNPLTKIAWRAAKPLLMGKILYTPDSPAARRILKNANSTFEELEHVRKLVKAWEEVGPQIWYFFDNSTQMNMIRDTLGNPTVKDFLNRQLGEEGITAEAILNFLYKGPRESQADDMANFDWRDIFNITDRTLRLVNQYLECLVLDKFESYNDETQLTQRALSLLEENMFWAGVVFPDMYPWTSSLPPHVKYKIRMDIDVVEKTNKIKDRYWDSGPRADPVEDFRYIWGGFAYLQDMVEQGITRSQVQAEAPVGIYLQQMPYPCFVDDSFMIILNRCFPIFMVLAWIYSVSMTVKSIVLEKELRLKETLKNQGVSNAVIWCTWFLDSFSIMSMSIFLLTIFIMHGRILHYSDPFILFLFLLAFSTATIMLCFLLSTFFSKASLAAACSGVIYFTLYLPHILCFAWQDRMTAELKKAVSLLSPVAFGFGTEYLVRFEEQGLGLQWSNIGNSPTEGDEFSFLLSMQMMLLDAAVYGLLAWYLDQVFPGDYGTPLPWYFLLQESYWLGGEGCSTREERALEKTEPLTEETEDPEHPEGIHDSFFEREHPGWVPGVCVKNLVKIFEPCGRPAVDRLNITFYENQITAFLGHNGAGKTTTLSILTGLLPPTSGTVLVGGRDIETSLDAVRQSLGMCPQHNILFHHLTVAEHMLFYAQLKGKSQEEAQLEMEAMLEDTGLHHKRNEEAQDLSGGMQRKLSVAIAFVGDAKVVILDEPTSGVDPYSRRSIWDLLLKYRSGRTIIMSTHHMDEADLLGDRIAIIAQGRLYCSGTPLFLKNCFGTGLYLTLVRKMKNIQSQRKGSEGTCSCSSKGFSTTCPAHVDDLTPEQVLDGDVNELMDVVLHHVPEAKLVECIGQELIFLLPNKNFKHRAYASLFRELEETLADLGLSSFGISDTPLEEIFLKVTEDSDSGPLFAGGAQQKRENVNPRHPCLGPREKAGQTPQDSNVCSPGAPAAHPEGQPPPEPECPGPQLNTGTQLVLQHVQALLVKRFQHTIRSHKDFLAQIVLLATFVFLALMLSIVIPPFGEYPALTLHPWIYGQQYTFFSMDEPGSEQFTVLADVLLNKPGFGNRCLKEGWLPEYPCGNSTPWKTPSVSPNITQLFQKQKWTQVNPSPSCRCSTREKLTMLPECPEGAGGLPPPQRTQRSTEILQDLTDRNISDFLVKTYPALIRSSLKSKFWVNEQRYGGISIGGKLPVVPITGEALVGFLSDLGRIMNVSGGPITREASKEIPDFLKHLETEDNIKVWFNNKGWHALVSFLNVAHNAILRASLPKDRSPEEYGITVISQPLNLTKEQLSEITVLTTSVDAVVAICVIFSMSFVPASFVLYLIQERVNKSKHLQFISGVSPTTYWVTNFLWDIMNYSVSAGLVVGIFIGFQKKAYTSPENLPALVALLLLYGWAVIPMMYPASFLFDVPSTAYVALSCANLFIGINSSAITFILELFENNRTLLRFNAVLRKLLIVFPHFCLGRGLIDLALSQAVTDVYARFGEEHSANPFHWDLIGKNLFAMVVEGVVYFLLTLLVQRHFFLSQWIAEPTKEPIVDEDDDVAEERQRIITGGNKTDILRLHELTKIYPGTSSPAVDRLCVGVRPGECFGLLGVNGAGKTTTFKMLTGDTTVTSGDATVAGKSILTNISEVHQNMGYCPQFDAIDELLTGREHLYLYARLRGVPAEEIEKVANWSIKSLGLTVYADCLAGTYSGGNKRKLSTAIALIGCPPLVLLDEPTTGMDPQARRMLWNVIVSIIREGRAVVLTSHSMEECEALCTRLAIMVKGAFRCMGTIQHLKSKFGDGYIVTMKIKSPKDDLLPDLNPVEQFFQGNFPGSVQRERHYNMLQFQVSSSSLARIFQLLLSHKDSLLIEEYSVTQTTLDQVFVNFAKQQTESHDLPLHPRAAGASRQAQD

| EC50 (ABCA4 P1380L) [µM] | EC50 (ABCB4 WT) [µM] | EC50 (ABCC6 WT) [µM] | Structure (SMILES) |
| --- | --- | --- | --- |
| 1 to 10 | 1 to 10 | 1 to 10 | Cc1cc(C)c(Oc2nc(N3CCC(C#N)C3)ccc2NS(C)(=O)=O)c(C)c1 (single isomer, unassigned) [Compound I-262] |
| < 1 | < 1 | < 1 | Cc1cc(C)c(Oc2nc(-c3cncc(C#N)c3)ccc2NS(C)(=O)=O)c(C)c1 [Compound I-39] |
| < 25 | < 25 | 1 to 10 | Cc1cc(C)c(Oc2nc(-c3cc(C#N)cnc3C)ccc2NS(C)(=O)=O)c(C)n1 [Compound I-270] |
| < 25 | ≥ 25 | 1 to 10 | Cc1cc(C)c(Oc2nc(-n3ccc(C#N)n3)ccc2NS(C)(=O)=O)c(C)c1 [Compound I-257] |
| < 1 | ≥ 25 | < 1 | Cc1cc(C)c(Oc2nc(-c3cnc(C#N)c(Cl)c3)ccc2NS(C)(=O)=O)c(C)c1 [Compound I-36] |
| > 25 | ≥ 25 | < 1 | Cc1cc(C)c(Oc2nc(-c3cncc(Cl)c3)ccc2NS(=O)(=O)C(C)C)c(C)c1 [Compound I-29] |
| > 25 | ≥ 25 | ≥ 25 | Cc1cnc(Oc2nc(-c3cncc(C#N)c3)ccc2NS(C)(=O)=O)c(C)c1 [Compound I-250] |
| < 1 | < 25 | 1 to 10 | Cc1cc(C)c(Oc2nc(-c3cc(C#N)c[nH]c3=O)ccc2NS(C)(=O)=O)c(C)n1 [Compound I-326] |
| 1 to 10 | ≥ 25 | 1 to 10 | Cc1cc(C)c(Oc2nc(-c3cncc(S(C)(=O)=O)c3)ccc2NS(C)(=O)=O)c(C)c1 [Compound I-278] |
| > 25 | ≥ 25 | 1 to 10 | Cc1cc(C)c(Oc2nc(-c3cc(Cl)cnc3C)ccc2NS(C)(=O)=O)c(C)n1 [Compound I-282] |
| < 25 | < 1 | < 1 | Cc1cc(C(F)(F)F)nc(C)c1Oc1nc(-c2cncc(C#N)c2)ccc1NS(C)(=O)=O [Compound I-240] |
| < 1 | < 1 | < 1 | CNS(=O)(=O)c1ccc(-c2cncc(C#N)c2)nc1Oc1c(C)cc(C)cc1C [Compound I-281] |
| 10 to 25 | 1 to 10 | 1 to 10 | Cc1cc(C)c(Oc2nc(N3CCC(C#N)C3)ccc2NS(C)(=O)=O)c(C)c1 (single isomer, unassigned) [Compound I-261] |
| < 1 | < 1 | < 1 | Cc1cc(C)c(Oc2nc(-c3cncc(C#N)c3)ccc2NS(C)(=O)=O)c(C2CC2)n1 [Compound I-268] |

Further lines, the molecule ahead of its results:

| Structure (SMILES) | EC50 (ABCA4 P1380L) [µM] | EC50 (ABCB4 WT) [µM] | EC50 (ABCC6 WT) [µM] |
| --- | --- | --- | --- |
| Cc1cc(C)c(Oc2nc(N3CC4CC3CN4C(=O)C3CC3)ccc2NS(C)(=O)=O)c(C)c1 (single isomer, unassigned) [Compound I-19] | > 25 | ≥ 25 | ≥ 25 |
| Cc1cc(C)c(Oc2nc(N3CCN(C(=O)C4CC4)CC3)ccc2S(N)(=O)=O)c(C)c1 [Compound I-285] | > 25 | ≥ 25 | 1 to 10 |
| Cc1cc(C2CC2)nc(C)c1Oc1nc(-c2cncc(C#N)c2)ccc1S(C)(=N)=O (stereo not drawn) [Compound I-251] | > 25 | ≥ 25 | 10 to 25 |
| Cc1cc(C)c(Oc2nc(N3CCC4(CN(C(=O)C5CC5)C4)C3)ccc2NS(C)(=O)=O)c(C)c1 [Compound I-25] | > 25 | 1 to 10 | 1 to 10 |
| Cc1cc(C(F)F)nc(C2CC2)c1Oc1nc(-c2cncc(C#N)c2)ccc1S(=O)(=O)NC1COC1 [Compound I-321] | < 25 | 1 to 10 | 1 to 10 |
| Cc1cc(C2CC2)nc(C)c1Oc1nc(-c2cncc(Cl)c2)ccc1NS(C)(=O)=O [Compound I-37] | < 1 | < 1 | < 1 |
| Cc1cc(C)c(Oc2nc(-c3cncc(C#N)c3)ccc2S(=N)(=O)C2CC2)c(C)n1 (stereo not drawn) [Compound I-248] | 1 to 10 | 1 to 10 | 1 to 10 |
| Cc1cc(C2CC2)nc(C2CC2)c1Oc1nc(-c2cncc(C#N)c2)ccc1S(=N)(=O)C1CC1 (stereo not drawn) [Compound I-317] | > 25 | < 1 | < 1 |
| Cc1cc(C)c(Oc2[nH]c(-c3cncc(C#N)c3)cc(=O)c2NS(C)(=O)=O)c(C)n1 [Compound I-325] | 1 to 10 | < 25 | ≥ 25 |
| Cc1cc(C)c(Oc2nc(-c3cncc(C#N)c3)ccc2S(C)(=N)=O)c(C)n1 (stereo not drawn) [Compound I-249] | > 25 | < 25 | ≥ 25 |
| Cc1cc(C2CC2)nc(C2CC2)c1Oc1nc(-c2cncc(C#N)c2)ccc1S(=O)(=O)NC1CCOCC1 [Compound I-322] | 1 to 10 | < 25 | 1 to 10 |
| Cc1cc(C)c(Oc2nc(-n3cnc(C#N)c3)ccc2N(C)S(C)(=O)=O)c(C)c1 [Compound I-272] | 1 to 10 | < 25 | 1 to 10 |
| Cc1cc(C)c(Oc2nc(-c3cncc(C#N)c3)ncc2NS(C)(=O)=O)c(C)n1 [Compound I-284] | < 25 | < 1 | < 1 |
| Cc1cc(C)c(Oc2nc(N3CCN(C(=O)C4CC4)CC3)ccc2NS(C)(=O)=O)c(C2CC2)n1 [Compound I-20] | > 25 | ≥ 25 | 1 to 10 |
| Cc1cc(C(F)F)nc(C2CC2)c1Oc1nc(-c2cncc(C#N)c2)ccc1S(=O)(=O)NC1CCOCC1 [Compound I-320] | < 25 | < 25 | 1 to 10 |
| CNC(=O)N1CCN(c2ccc(NS(C)(=O)=O)c(Oc3c(C)cc(C)cc3C)n2)CC1 [Compound I-27] | 1 to 10 | 10 to 25 | 10 to 25 |
| Cc1cc(C2CC2)nc(C)c1Oc1nc(-c2cncc(C#N)c2)ccc1NS(=O)(=O)C1CCC1 [Compound I-252] | < 1 | ≥ 25 | 1 to 10 |
| Cc1cc(C)c(Oc2nc(N3CCN(C(=O)N(C)C)CC3)ccc2NS(C)(=O)=O)c(C)c1 [Compound I-33] | > 25 | 10 to 25 | 1 to 10 |

Source: patent US20250228835A1, “PYRIDINYLOXYPYRIDINES AND RELATED COMPOUNDS AND THEIR USE IN TREATING MEDICAL CONDITIONS” (Rectify Pharmaceuticals, Inc., priority 2024, published 2025)
